Source: paper PMC12775434, “Ultra-large virtual screening unveils potent agonists of the neuromodulatory orphan receptor GPR139” (Nature Communications, 2025)
Where “and” joins values, the source holds several entries; their conditions need not be identical. Identical values can stand only once.

Key:
Format in all cases: cell-based
[1] = biological target: T1, GPR139 (Gi3 activation) (Homo sapiens, UniProt Q6DWJ6); assay: BRET G protein activation (dissociation) assay, Gi3, HEK293A; settings: for G protein activation, Gi3: individual replicates, listed as JNJ (S)
T1 construct: expressed in transfected cells; host or cells: HEK293A (transient, Lipofectamine 2000)
T1 sequence (Q6DWJ6 1-353): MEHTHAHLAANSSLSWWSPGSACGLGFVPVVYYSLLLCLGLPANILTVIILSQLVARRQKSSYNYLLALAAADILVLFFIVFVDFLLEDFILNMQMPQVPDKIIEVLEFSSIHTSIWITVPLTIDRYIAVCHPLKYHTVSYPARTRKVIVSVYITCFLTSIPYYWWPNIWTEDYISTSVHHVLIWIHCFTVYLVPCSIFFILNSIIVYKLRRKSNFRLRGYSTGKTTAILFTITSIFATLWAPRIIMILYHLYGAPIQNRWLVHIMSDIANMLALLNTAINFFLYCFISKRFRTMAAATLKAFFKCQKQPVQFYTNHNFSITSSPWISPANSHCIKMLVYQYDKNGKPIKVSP
Method: (§1) Primary screening and pharmacological characterization of compounds were performed using a CHO-K1 cell line that stably expresses human GPR139 (GPR139-CHOk1). The GPR139-CHOk1 cell line was kindly provided by H. Lundbeck A/S, Denmark[24]. GPR139-CHOk1 cells were grown in Ham’s F-12 Kaighn’s Modification Medium (ThermoFisher #21127030) supplemented with 10% dialyzed fetal bovine serum (US origin, ThermoFisher #26400044), 100 units/mL Penicillin-Streptomycin (ThermoFisher #15140122), and 1 mg/mL Geneticin (ThermoFisher #11811031). […] M1R-CHOk1 cells were purchased from The Missouri S&T cDNA Resource Center (#CEM100TN00). M1R-CHOk1 cells were grown in Ham’s F12 Medium (ThermoFisher #21765029) supplemented with 10% fetal bovine serum (Brazilian origin, ThermoFisher #10270106), 100 units/mL Penicillin-Streptomycin, and 0.25 mg/mL Geneticin. HEK293A cells transiently transfected with GPR139 were used for additional pharmacological assessment of signaling pathways activated by GPR139. HEK239A cells were generously provided by Dr. Asuka Inoue, Tohoku University, Japan. HEK293A cells were grown in Dulbecco’s Modified Eagle Medium (ThermoFisher #31966047) supplemented with 10% dialyzed fetal bovine serum and 100 units/mL Penicillin-Streptomycin. Cell lines were maintained at 37 °C in humidified incubator equilibrated with 5% CO2.
(§2) The G protein dissociation assay developed by the lab of Kirill A. Martemyanov was used to measure the coupling of multiple G proteins by GPR139[57]. The assay was performed as described previously with minor modifications. HEK293A cells were reverse transfected 20–24 h prior to assay. 50,000 cells were plated in each well of white opaque tissue culture treated 96-well plates (PerkinElmer #6005680) previously coated with poly-D-lysine. Transfection solutions were prepared as described, and 10 µL transfection solution was mixed with 100 µL cells in each well. The cells in each well were transfected with 18.9 ng GPR139, 6.3 ng Venus 1-155 Gγ2, 6.3 ng Venus 159-239 Gβ1, 6.3 ng masGRK3ct-NanoLuc and 12.6 ng Gαi2, 12.6 ng Gαi3, 12.6 ng GαoA, 12.6 ng Gαq or 25.2 ng Gα12 using 375 nL Lipofectamine 2000 Transfection Reagent. Transfections with Gαq and Gα12 contained 6.3 ng DNA of the active subunit S1 of pertussis toxin (PTX-S1). Each transfection was normalized to 150 ng total DNA with pcDNA3.1. The BRET biosensors were a kind gift from the Martemyanov lab. On the day of the experiment the cells were washed with HEPES buffer. Test compounds were diluted in HEPES buffer from DMSO stocks (final DMSO concentration of maximally 0.3%). NanoLuc Luciferase substrate NanoGlo—furimazine (Promega #N1120) was diluted 1000-fold (final) in HEPES buffer. NanoGlo and test compounds were added, and measurements were performed after 10 s for Gi3, 15 s for Gi2 and GoA, 20 s for Gq, and 90 s for G12—the timepoint where maximal signal occurred with each G protein, ensuring proper determination of the potency for the G protein coupling. Simultaneous dual emission was measured at 535 nm and 475 nm on LUMIstar Omega Microplate Reader (BMG Labtech) at room temperature. The BRET ratio of 535 nm/475 nm (Venus/NanoLuc), reflecting the dissociation of the G protein heterotrimer, was used to determine the G protein activation. The basal BRET ratio obtained with buffer condition was subtracted from the absolute BRET ratio at a given test compound concentration, and the responses were normalized to the one obtained with 10 µM JNJ-63533054 for the activation of Gi2.
(§3) Pharmacological data and statistical analyses were performed in GraphPad Prism v9–10 (Graphpad Software Inc., San Diego, CA), which are also specifically described in the figure and table legends. […]

[2] = biological target: T2, GPR139 (GoA activation) (Homo sapiens, UniProt Q6DWJ6); assay: BRET G protein activation (dissociation) assay, GoA, HEK293A; settings: for G protein activation, GoA: individual replicates, listed as JNJ (S)
T2 construct: expressed in transfected cells; host or cells: HEK293A (transient, Lipofectamine 2000)
T2 sequence (Q6DWJ6 1-353): T1 sequence (Q6DWJ6 1-353)
Method: as §1, §2, §3

[3] = biological target: T3, GPR139 (G12 activation) (Homo sapiens, UniProt Q6DWJ6); assay: BRET G protein activation (dissociation) assay, G12, HEK293A; settings: for G protein activation, G12: individual replicates, listed as JNJ (S)
T3 construct: expressed in transfected cells; host or cells: HEK293A (transient, Lipofectamine 2000)
T3 sequence (Q6DWJ6 1-353): T1 sequence (Q6DWJ6 1-353)
Method: as §1, §2, §3

[4] = HEK293-A, normalized to JNJ-63533054 (JNJ(S))

CC(NC(=O)CNC(=O)c1cccc(Cl)c1)c1ccccc1 (stereo not drawn) [JNJ-63533054, reference compound]
Emax [1, 4]: 56 ± 4%
EC50 ([1]; Supplementary Table 6, read-out: pEC50 Gi3 (converted)): 100 nM
G protein activation, Gi3 ([1]; log [compound] M -4.5): 63 % of JNJ-63533054 at Gi2 and 48 % of JNJ-63533054 at Gi2 and 54 % of JNJ-63533054 at Gi2
G protein activation, Gi3 ([1]; log [compound] M -5.0): 59 % of JNJ-63533054 at Gi2 and 44 % of JNJ-63533054 at Gi2 and 57 % of JNJ-63533054 at Gi2
G protein activation, Gi3 ([1]; log [compound] M -5.5): 57 % of JNJ-63533054 at Gi2 and 41 % of JNJ-63533054 at Gi2 and 51 % of JNJ-63533054 at Gi2
G protein activation, Gi3 ([1]; log [compound] M -6.0): 52 % of JNJ-63533054 at Gi2 and 39 % of JNJ-63533054 at Gi2 and 42 % of JNJ-63533054 at Gi2
G protein activation, Gi3 ([1]; log [compound] M -6.5): 48 % of JNJ-63533054 at Gi2 and 28 % of JNJ-63533054 at Gi2 and 40 % of JNJ-63533054 at Gi2
G protein activation, Gi3 ([1]; log [compound] M -7.0): 37 % of JNJ-63533054 at Gi2 and 22 % of JNJ-63533054 at Gi2 and 29 % of JNJ-63533054 at Gi2
G protein activation, Gi3 ([1]; log [compound] M -7.5): 26 % of JNJ-63533054 at Gi2 and 11 % of JNJ-63533054 at Gi2 and 24 % of JNJ-63533054 at Gi2
G protein activation, Gi3 ([1]; log [compound] M -8.0): 10 % of JNJ-63533054 at Gi2 and 5.6 % of JNJ-63533054 at Gi2 and 14 % of JNJ-63533054 at Gi2
Emax [2, 4]: 114 ± 2%
EC50 ([2]; Supplementary Table 6): 79.4 nM
G protein activation, GoA ([2]; log [compound] M -4.5): 119 % of JNJ-63533054 at Gi2 (2×) and 112 % of JNJ-63533054 at Gi2
G protein activation, GoA ([2]; log [compound] M -5.0): 117 % of JNJ-63533054 at Gi2 (2×) and 106 % of JNJ-63533054 at Gi2
G protein activation, GoA ([2]; log [compound] M -5.5): 113 % of JNJ-63533054 at Gi2 and 106 % of JNJ-63533054 at Gi2 (2×)
G protein activation, GoA ([2]; log [compound] M -6.0): 108 % of JNJ-63533054 at Gi2 and 94 % of JNJ-63533054 at Gi2 and 102 % of JNJ-63533054 at Gi2
G protein activation, GoA ([2]; log [compound] M -6.5): 97 % of JNJ-63533054 at Gi2 and 82 % of JNJ-63533054 at Gi2 and 91 % of JNJ-63533054 at Gi2
G protein activation, GoA ([2]; log [compound] M -7.0): 74 % of JNJ-63533054 at Gi2 and 64 % of JNJ-63533054 at Gi2 and 65 % of JNJ-63533054 at Gi2
G protein activation, GoA ([2]; log [compound] M -7.5): 43 % of JNJ-63533054 at Gi2 and 34 % of JNJ-63533054 at Gi2 and 33 % of JNJ-63533054 at Gi2
G protein activation, GoA ([2]; log [compound] M -8.0): 17 % of JNJ-63533054 at Gi2 and 12 % of JNJ-63533054 at Gi2 and 13 % of JNJ-63533054 at Gi2
Emax [3, 4]: 57 ± 1%
EC50 ([3]; Supplementary Table 6, read-out: pEC50 G12 (converted)): 25.1 nM
G protein activation, G12 ([3]; log [compound] M -4.5): 60 % of JNJ-63533054 at Gi2 (2×) and 57 % of JNJ-63533054 at Gi2
G protein activation, G12 ([3]; log [compound] M -5.0): 55 % of JNJ-63533054 at Gi2 and 54 % of JNJ-63533054 at Gi2 and 57 % of JNJ-63533054 at Gi2
G protein activation, G12 ([3]; log [compound] M -5.5): 53 % of JNJ-63533054 at Gi2 and 55 % of JNJ-63533054 at Gi2 and 54 % of JNJ-63533054 at Gi2
G protein activation, G12 ([3]; log [compound] M -6.0): 50 % of JNJ-63533054 at Gi2 and 51 % of JNJ-63533054 at Gi2 and 53 % of JNJ-63533054 at Gi2
G protein activation, G12 ([3]; log [compound] M -6.5): 52 % of JNJ-63533054 at Gi2 and 46 % of JNJ-63533054 at Gi2 and 48 % of JNJ-63533054 at Gi2
G protein activation, G12 ([3]; log [compound] M -7.0): 47 % of JNJ-63533054 at Gi2 and 42 % of JNJ-63533054 at Gi2 and 38 % of JNJ-63533054 at Gi2
G protein activation, G12 ([3]; log [compound] M -7.5): 32 % of JNJ-63533054 at Gi2 and 33 % of JNJ-63533054 at Gi2 and 26 % of JNJ-63533054 at Gi2
G protein activation, G12 ([3]; log [compound] M -8.0): 22 % of JNJ-63533054 at Gi2 and 21 % of JNJ-63533054 at Gi2 and 16 % of JNJ-63533054 at Gi2
